# What was measured:
# FGFR1 = FGFR1 (Homo sapiens, UniProt P11362); assay: ELISA kinase assay, FGFR1; assay type: biochemical; conditions: for IC50: ELISA, average values from two separate experiments
# Procedure: Elisa kinase assay. The effects of the indicated compounds on the activities of receptor tyrosine kinases were determined using enzyme-linked immunosorbent assays (ELISAs) with purified recombinant proteins. Briefly, 20 μg/mL poly (Glu,Tyr)4:1 (Sigma, St Louis, MO, USA) was pre-coated in 96-well plates as a substrate. A 50 μL aliquot of 10 μmol/L ATP solution diluted in kinase reaction buffer (50 mmol/L HEPES [pH 7.4], 50 mmol/L MgCl2, 0.5 mmol/L MnCl2, 0.2 mmol/L Na3VO4, and 1 mmol/L DTT) was added to each well; 1 μL of different compounds with indicated concentration diluted in 1% DMSO (v/v) (Sigma, St Louis, MO, USA) were then added to each reaction well. DMSO (1%, v/v) was used as the negative control. The kinase reaction was initiated by the addition of purified tyrosine kinase proteins (FGFR1, FGFR2, FGFR3, FGFR4, ALK, Bcr-Abl, EPH-A2, Flt-1, RET, c-Src, IGF1R, c-Met, EGFR, ErbB2) diluted in 49 μL of kinase reaction buffer solution. After incubation for 60 min at 37 °C, the plate was washed three times with phosphate-buffered saline (PBS) containing 0.1% Tween 20 (T-PBS). Anti-phosphotyrosine (PY99) antibody (100 μL; 1:500, diluted in 5 mg/mL BSA T-PBS) was then added. After a 30 min incubation at 37 °C, the plate was washed three times, and 100 μL horseradish peroxidase-conjugated goat anti-mouse IgG (1:2000, diluted in 5 mg/mL BSA T-PBS) was added. The plate was then incubated at 37 °C for 30 min and washed 3 times. A 100 μL aliquot of a solution containing 0.03% H2O2 and 2 mg/mL o-phenylenediamine in 0.1 mol/l citrate buffer (pH 5.5) was added. The reaction was terminated by the addition of 50 μL of 2 mol/l H2SO4 as the colour changed, and the plate was analysed using a multi-well spectrophotometer (SpectraMAX 190, Molecular Devices, Sunnyvale, CA, USA) at 490 nm. The inhibition rate (%) was calculated using the following equation: [1-(A490/A490 control)] × 100%. The IC50 values were calculated from the inhibition curves in two separate experiments.
# SNU-16 cell = assay: Cell proliferation assay (CCK-8 or MTT), SNU-16; assay type: cell-based, Human; conditions: Homo sapiens, SNU-16 is FGFR2-amplified cell type, 72 h
# Procedure: Human gastric cancer cell line SNU-16 was purchased from American Type Culture Collection (ATCC, Manssas, VA, USA). All the cell lines were routinely maintained in complete medium according to the suppliers’ recommendations.
# Cells were seeded in 96-well tissue culture plates. On the day when seeding, the cells were exposed to various concentrations of compounds and further cultured for 72 h at 37 °C. Finally, cell proliferation was determined using Cell Counting Kit (CCK-8) or the thiazolyl blue tetrazolium bromide (MTT, from Sigma-Aldrich, St. Louis, MO, USA) assay. The IC50 values were calculated by concentration–response curve fitting using a SoftMax pro-based four-parameter method.
# FGFR2 = FGFR2 (Homo sapiens, UniProt P21802); assay: ELISA kinase assay, FGFR2; assay type: biochemical; conditions: kinase selectivity panel
# Chain of FGFR2 (P21802 22-821): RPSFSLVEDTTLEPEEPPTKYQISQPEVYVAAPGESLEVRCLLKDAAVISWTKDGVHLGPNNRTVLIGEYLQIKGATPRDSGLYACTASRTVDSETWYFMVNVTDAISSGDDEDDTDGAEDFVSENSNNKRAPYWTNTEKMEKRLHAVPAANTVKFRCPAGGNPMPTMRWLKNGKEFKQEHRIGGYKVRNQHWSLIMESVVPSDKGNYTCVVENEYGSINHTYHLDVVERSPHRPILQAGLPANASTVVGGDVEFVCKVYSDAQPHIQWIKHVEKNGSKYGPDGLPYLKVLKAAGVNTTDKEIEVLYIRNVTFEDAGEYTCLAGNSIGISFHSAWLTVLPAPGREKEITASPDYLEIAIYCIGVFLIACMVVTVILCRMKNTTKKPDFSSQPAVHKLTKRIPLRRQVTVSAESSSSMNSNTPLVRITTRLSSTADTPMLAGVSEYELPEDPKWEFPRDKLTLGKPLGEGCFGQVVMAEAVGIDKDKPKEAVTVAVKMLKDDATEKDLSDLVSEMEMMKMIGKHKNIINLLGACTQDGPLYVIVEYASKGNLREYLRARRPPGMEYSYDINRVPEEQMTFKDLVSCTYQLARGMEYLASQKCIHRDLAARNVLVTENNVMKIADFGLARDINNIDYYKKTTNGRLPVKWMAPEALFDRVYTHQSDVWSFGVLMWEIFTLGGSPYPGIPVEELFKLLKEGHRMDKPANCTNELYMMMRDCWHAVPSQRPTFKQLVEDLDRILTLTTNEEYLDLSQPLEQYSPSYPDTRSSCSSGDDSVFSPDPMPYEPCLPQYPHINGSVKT
# Procedure: DMSO (1%, v/v) was used as the negative control. […] Anti-phosphotyrosine (PY99) antibody (100 μL; 1:500, diluted in 5 mg/mL BSA T-PBS) was then added. […] The IC50 values were calculated from the inhibition curves in two separate experiments.
# FGFR3 = FGFR3 (Homo sapiens, UniProt P22607); assay: ELISA kinase assay, FGFR3; assay type: biochemical; conditions: kinase selectivity panel
# Chain of FGFR3 (P22607 23-806): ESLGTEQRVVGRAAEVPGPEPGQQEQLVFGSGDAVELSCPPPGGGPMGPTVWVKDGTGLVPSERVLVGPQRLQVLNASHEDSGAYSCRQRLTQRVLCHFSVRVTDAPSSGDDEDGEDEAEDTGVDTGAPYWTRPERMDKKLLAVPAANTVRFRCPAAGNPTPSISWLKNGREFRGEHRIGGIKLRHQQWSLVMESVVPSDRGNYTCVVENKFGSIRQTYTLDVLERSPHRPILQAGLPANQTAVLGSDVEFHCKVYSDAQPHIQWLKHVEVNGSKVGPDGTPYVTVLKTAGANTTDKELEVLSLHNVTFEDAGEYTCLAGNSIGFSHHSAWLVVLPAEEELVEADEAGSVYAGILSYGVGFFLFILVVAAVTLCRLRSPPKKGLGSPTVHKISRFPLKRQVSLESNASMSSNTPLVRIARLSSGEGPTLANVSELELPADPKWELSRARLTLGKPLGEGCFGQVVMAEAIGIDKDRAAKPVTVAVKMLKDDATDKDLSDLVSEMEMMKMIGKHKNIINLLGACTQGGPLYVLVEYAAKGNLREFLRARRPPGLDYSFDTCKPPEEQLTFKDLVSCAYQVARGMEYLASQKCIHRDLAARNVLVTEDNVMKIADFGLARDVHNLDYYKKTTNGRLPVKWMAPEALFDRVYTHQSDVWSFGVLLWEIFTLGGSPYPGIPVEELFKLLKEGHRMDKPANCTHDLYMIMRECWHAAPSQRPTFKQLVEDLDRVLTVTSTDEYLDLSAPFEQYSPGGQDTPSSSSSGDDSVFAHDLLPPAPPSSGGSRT
# Procedure: (§1) The kinase profiling of 9 u was conducted using Elisa kinase assay and the Eurofins Kinase Profiler Selectivity Testing Service.
# (§2) Elisa kinase assay. The effects of the indicated compounds on the activities of receptor tyrosine kinases were determined using enzyme-linked immunosorbent assays (ELISAs) with purified recombinant proteins. Briefly, 20 μg/mL poly (Glu,Tyr)4:1 (Sigma, St Louis, MO, USA) was pre-coated in 96-well plates as a substrate. A 50 μL aliquot of 10 μmol/L ATP solution diluted in kinase reaction buffer (50 mmol/L HEPES [pH 7.4], 50 mmol/L MgCl2, 0.5 mmol/L MnCl2, 0.2 mmol/L Na3VO4, and 1 mmol/L DTT) was added to each well; 1 μL of different compounds with indicated concentration diluted in 1% DMSO (v/v) (Sigma, St Louis, MO, USA) were then added to each reaction well. DMSO (1%, v/v) was used as the negative control. The kinase reaction was initiated by the addition of purified tyrosine kinase proteins (FGFR1, FGFR2, FGFR3, FGFR4, ALK, Bcr-Abl, EPH-A2, Flt-1, RET, c-Src, IGF1R, c-Met, EGFR, ErbB2) diluted in 49 μL of kinase reaction buffer solution. […] The reaction was terminated by the addition of 50 μL of 2 mol/l H2SO4 as the colour changed, and the plate was analysed using a multi-well spectrophotometer (SpectraMAX 190, Molecular Devices, Sunnyvale, CA, USA) at 490 nm. […] The IC50 values were calculated from the inhibition curves in two separate experiments.
# FGFR4 = FGFR4 (Homo sapiens, UniProt P22455); assay: ELISA kinase assay, FGFR4; assay type: biochemical; conditions: kinase selectivity panel
# Procedure: as §1, §2
# ALK = ALK (Homo sapiens, UniProt Q9UM73); assay: ELISA kinase assay, ALK; assay type: biochemical; conditions: kinase selectivity panel
# Procedure: as §1, §2
# Bcr-Abl = Bcr-Abl (Homo sapiens, UniProt P00519); assay: ELISA kinase assay, Bcr-Abl; assay type: biochemical; conditions: kinase selectivity panel
# Procedure: as §1, §2
# EPH-A2 = EPH-A2 (Homo sapiens, UniProt P29317); assay: ELISA kinase assay, EPH-A2; assay type: biochemical; conditions: kinase selectivity panel
# Procedure: as §1, §2
# Flt-1 = Flt-1 (Homo sapiens, UniProt P17948); assay: ELISA kinase assay, Flt-1; assay type: biochemical; conditions: kinase selectivity panel
# Chain of Flt-1 (P17948 27-1338, species assumed): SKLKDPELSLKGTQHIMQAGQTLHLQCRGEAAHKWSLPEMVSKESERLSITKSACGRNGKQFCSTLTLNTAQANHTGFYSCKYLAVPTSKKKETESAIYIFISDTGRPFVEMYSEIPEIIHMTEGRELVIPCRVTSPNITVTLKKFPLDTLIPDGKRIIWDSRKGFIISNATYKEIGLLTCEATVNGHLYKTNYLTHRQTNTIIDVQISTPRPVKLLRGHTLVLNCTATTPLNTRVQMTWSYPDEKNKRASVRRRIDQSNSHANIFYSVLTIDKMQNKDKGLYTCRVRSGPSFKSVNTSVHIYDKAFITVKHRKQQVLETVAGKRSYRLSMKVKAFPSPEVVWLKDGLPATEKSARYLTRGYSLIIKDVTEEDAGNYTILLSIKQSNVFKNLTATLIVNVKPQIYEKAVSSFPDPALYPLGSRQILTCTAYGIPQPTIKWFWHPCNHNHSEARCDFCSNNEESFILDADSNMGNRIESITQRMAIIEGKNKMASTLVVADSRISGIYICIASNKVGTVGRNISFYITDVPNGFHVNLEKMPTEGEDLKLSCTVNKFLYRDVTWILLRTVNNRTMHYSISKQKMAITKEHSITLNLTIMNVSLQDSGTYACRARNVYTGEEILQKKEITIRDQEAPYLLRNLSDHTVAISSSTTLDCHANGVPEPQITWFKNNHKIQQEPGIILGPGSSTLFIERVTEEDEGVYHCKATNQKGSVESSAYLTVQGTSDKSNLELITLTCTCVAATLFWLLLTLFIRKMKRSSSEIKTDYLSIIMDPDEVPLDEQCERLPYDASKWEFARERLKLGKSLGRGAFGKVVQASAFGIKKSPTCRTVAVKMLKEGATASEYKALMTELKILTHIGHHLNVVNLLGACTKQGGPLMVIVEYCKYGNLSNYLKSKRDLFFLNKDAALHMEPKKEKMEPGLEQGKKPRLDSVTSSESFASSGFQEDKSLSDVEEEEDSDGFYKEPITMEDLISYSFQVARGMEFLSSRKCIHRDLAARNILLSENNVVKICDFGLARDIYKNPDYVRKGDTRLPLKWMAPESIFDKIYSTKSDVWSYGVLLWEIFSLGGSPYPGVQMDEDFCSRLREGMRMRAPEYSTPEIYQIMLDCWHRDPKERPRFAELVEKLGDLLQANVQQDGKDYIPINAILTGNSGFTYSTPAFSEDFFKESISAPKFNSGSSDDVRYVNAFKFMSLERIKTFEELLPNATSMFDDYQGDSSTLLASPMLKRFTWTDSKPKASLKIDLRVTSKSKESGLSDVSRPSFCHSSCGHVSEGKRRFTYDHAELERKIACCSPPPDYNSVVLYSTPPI
# Procedure: as §1, §2
# RET = RET (Homo sapiens, UniProt P07949); assay: ELISA kinase assay, RET; assay type: biochemical; conditions: kinase selectivity panel
# Procedure: as §1, §2
# c-Src = c-Src (Homo sapiens, UniProt P12931); assay: ELISA kinase assay, c-Src; assay type: biochemical; conditions: kinase selectivity panel
# Procedure: as §1, §2
# IGF1R = IGF1R (Homo sapiens, UniProt P08069); assay: ELISA kinase assay, IGF1R; assay type: biochemical; conditions: kinase selectivity panel
# Procedure: as §1, §2
# c-Met = c-Met (Homo sapiens, UniProt P08581); assay: ELISA kinase assay, c-Met; assay type: biochemical; conditions: kinase selectivity panel
# Procedure: as §1, §2
# EGFR = EGFR (Homo sapiens, UniProt P00533); assay: ELISA kinase assay, EGFR; assay type: biochemical; conditions: kinase selectivity panel
# Chain of EGFR (P00533 25-1210, species assumed): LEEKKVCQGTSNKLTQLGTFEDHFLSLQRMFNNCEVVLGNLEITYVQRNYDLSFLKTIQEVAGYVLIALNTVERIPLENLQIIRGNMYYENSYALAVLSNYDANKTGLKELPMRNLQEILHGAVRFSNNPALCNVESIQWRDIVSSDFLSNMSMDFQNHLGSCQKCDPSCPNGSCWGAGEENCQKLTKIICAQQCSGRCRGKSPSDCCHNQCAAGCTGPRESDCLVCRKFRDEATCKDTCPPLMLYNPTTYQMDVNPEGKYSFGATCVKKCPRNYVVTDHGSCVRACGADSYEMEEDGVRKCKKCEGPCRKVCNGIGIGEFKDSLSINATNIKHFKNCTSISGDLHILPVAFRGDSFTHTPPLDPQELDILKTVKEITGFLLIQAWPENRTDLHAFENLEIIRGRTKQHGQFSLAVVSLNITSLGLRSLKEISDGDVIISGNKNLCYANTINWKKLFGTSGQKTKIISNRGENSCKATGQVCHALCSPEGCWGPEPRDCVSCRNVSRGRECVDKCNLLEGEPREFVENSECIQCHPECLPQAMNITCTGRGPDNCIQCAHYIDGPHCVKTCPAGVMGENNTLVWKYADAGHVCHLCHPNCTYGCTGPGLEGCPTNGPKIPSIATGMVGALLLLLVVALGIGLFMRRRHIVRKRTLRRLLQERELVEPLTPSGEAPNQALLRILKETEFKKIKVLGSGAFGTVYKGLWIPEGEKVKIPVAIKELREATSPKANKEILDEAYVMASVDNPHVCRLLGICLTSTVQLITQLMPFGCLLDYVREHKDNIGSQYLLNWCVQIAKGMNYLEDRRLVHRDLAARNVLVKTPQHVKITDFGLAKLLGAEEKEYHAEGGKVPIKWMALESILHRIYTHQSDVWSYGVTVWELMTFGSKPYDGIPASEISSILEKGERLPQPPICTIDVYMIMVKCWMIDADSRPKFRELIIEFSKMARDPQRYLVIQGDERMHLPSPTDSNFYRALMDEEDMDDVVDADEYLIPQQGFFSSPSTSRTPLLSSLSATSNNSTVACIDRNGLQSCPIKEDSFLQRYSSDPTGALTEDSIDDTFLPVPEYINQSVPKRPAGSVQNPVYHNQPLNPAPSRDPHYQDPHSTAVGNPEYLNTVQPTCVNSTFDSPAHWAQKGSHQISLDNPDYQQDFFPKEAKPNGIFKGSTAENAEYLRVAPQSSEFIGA
# Procedure: as §1, §2
# ErbB2 = ErbB2 (Homo sapiens, UniProt P04626); assay: ELISA kinase assay, ErbB2; assay type: biochemical; conditions: kinase selectivity panel
# Procedure: as §1, §2
# Chain of FGFR1 (P11362 22-822): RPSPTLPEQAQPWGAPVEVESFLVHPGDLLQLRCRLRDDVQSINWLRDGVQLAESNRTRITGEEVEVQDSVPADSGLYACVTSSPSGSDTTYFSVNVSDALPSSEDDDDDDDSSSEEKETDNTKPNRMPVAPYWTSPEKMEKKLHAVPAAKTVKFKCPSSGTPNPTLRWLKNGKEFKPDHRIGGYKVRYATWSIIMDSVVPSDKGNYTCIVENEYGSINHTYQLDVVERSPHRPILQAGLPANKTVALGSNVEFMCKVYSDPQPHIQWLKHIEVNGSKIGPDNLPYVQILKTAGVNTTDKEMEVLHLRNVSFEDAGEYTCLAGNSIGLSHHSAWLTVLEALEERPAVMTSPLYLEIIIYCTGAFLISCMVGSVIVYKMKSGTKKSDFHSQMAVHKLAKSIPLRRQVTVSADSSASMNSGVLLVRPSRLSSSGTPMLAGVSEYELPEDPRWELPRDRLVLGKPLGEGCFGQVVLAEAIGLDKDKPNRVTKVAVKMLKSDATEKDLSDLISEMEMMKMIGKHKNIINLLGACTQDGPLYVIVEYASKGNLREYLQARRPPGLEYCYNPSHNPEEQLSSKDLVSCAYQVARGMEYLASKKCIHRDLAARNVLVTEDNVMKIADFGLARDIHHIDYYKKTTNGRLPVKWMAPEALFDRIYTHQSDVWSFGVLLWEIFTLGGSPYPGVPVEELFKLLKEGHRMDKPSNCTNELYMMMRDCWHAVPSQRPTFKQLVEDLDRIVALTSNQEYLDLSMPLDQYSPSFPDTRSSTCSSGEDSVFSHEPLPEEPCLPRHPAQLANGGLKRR
SMILES,IC50 (FGFR1) [nM],melting point [°C],IC50 (SNU-16 cell; Table 2) [nM],IC50 (SNU-16 cell; Table 1) [nM],further results
"CCN1CCN(c2ccc(C(=O)Nc3n[nH]c4cc(-c5c(C)cccc5C)ccc34)cc2)CC1 [9q, N-(6–(2,6-dimethylphenyl)-1H-indazol-3-yl)-4–(4-ethylpiperazin-1-yl)benzamide]",41.7,235.7 to 239.2,856,,
"CCN1CCN(c2ccc(C(=O)Nc3n[nH]c4cc(-c5cc(Cl)cc(Cl)c5)ccc34)cc2)CC1 [9k, N-(6–(3,5-dichlorophenyl)-1H-indazol-3-yl)-4–(4-ethylpiperazin-1-yl)benzamide]",67.2,226.4 to 228.7,1200,,
"CCN1CCN(c2ccc(C(=O)Nc3n[nH]c4cc(-c5cccc(C(=O)OC)c5)ccc34)cc2)CC1 [9h, methyl 3–(3-(4–(4-ethylpiperazin-1-yl)benzamido)-1H-indazol-6-yl)benzoate]",77.7,228.7 to 233.4,757,,
"CCOc1cccc(-c2ccc3c(NC(=O)c4ccc(N5CCN(CC)CC5)cc4)n[nH]c3c2)c1 [9e, N-(6–(3-ethoxyphenyl)-1H-indazol-3-yl)-4–(4-ethylpiperazin-1-yl)benzamide]",13.2,223.6 to 226,1790,,
"COc1cccc(-c2ccc3nc(NC(=O)c4ccc(N5CCN(C)CC5)cc4)sc3c2)c1 [12a, N-(6–(3-methoxyphenyl)benzo[d]thiazol-2-yl)-4–(4-methylpiperazin-1-yl) benzamide]",> 1000,230.5 to 233.2,,> 5000,
"CN1CCN(c2ccc(C(=O)Nc3n[nH]c(CCc4ccccc4)n3)cc2)CC1 [18a, 4–(4-methylpiperazin-1-yl)-N-(5-phenethyl-1H-1,2,4-triazol-3-yl)benzamide]",> 1000,218.1 to 222.5,,> 5000,
"COc1cccc(-c2ccc3nc(NC(=O)c4ccc(N5CCN(C)CC5)cc4)sc3c2)c1F [12d, N-(6–(2-fluoro-3-methoxyphenyl)benzo[d]thiazol-2-yl)-4–(4-methylpiperazin-1-yl)benzamide]",> 1000,232.5 to 235.2,,> 5000,

# More lines, main results first:
IC50 (FGFR1) [nM],melting point [°C],IC50 (SNU-16 cell; Table 2) [nM],IC50 (SNU-16 cell; Table 1) [nM],SMILES,further results
3.3,223.8 to 227.4,,,"COc1cc(F)cc(-c2ccc3c(NC(=O)c4ccc(N5CCC(N(C)C)CC5)cc4)n[nH]c3c2)c1 [9u, 4–(4-(dimethylamino)piperidin-1-yl)-N-(6–(3-fluoro-5-methoxyphenyl)-1H-indazol-3-yl)benzamide]",enhancement of FGFR1 inhibitory activity (FGFR1; compared with 9o): 1.5 fold; IC50 (SNU-16 cell; Table 3): 468 nM; IC50 (FGFR2): 5.2 nM; IC50 (FGFR3): 12.2 nM; IC50 (FGFR4): > 1000 nM; IC50 (ALK): > 1000 nM; IC50 (Bcr-Abl): > 1000 nM; IC50 (EPH-A2): > 1000 nM; IC50 (Flt-1): > 100 nM; IC50 (RET): > 100 nM; IC50 (c-Src): > 100 nM; IC50 (IGF1R): > 1000 nM; IC50 (c-Met): > 1000 nM; IC50 (EGFR): > 1000 nM; IC50 (ErbB2): > 1000 nM
13.2,229.6 to 233.4,,,"COc1cc(F)cc(-c2ccc3c(NC(=O)c4ccc(N5C[C@@H](C)N[C@@H](C)C5)cc4)n[nH]c3c2)c1 [9v, 4-((3R,5S)-3,5-dimethylpiperazin-1-yl)-N-(6–(3-fluoro-5-methoxyphenyl)-1H-indazol-3-yl)benzamide]",IC50 (SNU-16 cell; Table 3): 437 nM
50.6,231.5 to 234.6,780,,"CCN1CCN(c2ccc(C(=O)Nc3n[nH]c4cc(-c5cc(Cl)ccc5Cl)ccc34)cc2)CC1 [9l, N-(6–(2,5-dichlorophenyl)-1H-indazol-3-yl)-4–(4-ethylpiperazin-1-yl)benzamide]",

# Source: publication PMC6844396, “Design, synthesis and biological evaluation of novel 1H-1,2,4-triazole, benzothiazole and indazole-based derivatives as potent FGFR1 inhibitors viafragment-based virtual screening” (Journal of Enzyme Inhibition and Medicinal Chemistry, 2019)
